Our source for the solubility values is patent US8105630B2, “Composition containing medicine extremely slightly soluble in water being excellent in eluting property and method for preparation thereof” (Kowa Co., Ltd., priority 2003, dated 2012).

Values after ≈ are worked out from the molar mass of the structure shown.

This series can be described thus: physchem. Conditions: 25 °C, water.
As usually defined, the solubility is the concentration that dissolves in the medium under given conditions. With `CCCCC(=O)O[C@]1(C(=O)COC(C)=O)CC[C@H]2[C@@H]3CCC4=CC(=O)C=C[C@]4(C)[C@H]3[C@@H](O)C[C@@]21C` [prednisolone valerate acetate], the solubility came to 4 µg/mL.

Regarding `CC(C)CCC[C@@H](C)[C@H]1CC[C@H]2[C@@H]3CC=C4C[C@@H](O)CC[C@]4(C)[C@H]3CC[C@]12C` [cholesterol], the solubility turned out to be 0.1 µg/mL (≈ 0.259 µM).

In turn, `CSc1ccc(-c2nn(Cc3ccccc3)c(=O)cc2-c2ccc(Cl)cc2)cc1` [Compound A, 2-benzyl-5-(4-chlorophenyl)-6-[4-(methylthio)phenyl]-2H-pyridazin-3-one] registered a solubility of 0.01 µg/mL (≈ 0.0239 µM).

In turn, `O=C(Nc1cccc2c(=O)cc(-c3nnn[nH]3)oc12)c1ccc(OCCCCc2ccccc2)cc1` [pranlukast] yielded a solubility of 0.9 µg/mL (≈ 1.87 µM). Against the preceding compound, the solubility is about 90-fold higher.
